Some test systems named below: IGROV1 ovarian; HOP-92 NSCLC; 786-0 renal; DU-145 prostate; MOLT-4 leukemia; SK-MEL-28 melanoma; OVCAR-8 ovarian; SNB-75 CNS.
Assay in all cases: NCI tumour cell line growth inhibition, 48 h

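A five-concentration, 48-hour dose response in 96-well plates underlies each endpoint, interpolated linearly between surrounding concentrations. Abbreviation: GI50, concentration required for 50% inhibition of growth. Definition used: TGI = concentration required for complete inhibition of growth.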

Turning to `Cc1ccc(/C=C2/SC(Nc3nc(-c4csc(NC5=NC(=O)/C(=C\c6ccc(C)cc6)S5)n4)cs3)=NC2=O)cc1`, the GI50 in the experiment on IGROV1 ovarian is 24 µM; in the experiment on HOP-92 NSCLC it was 7.03 µM; in the experiment with 786-0 renal, 7.68 µM; in the experiment with DU-145 prostate it was 9.28 µM; with MOLT-4 leukemia, 18.5 µM; in the experiment with SK-MEL-28 melanoma, 25 µM. Further, in the experiment with OVCAR-8 ovarian, the GI50 is 6.05 µM. Further, the TGI in the experiment on IGROV1 ovarian is more than 50 µM; with HOP-92 NSCLC, 24.5 µM; with 786-0 renal, 25.6 µM; in the experiment on DU-145 prostate it was more than 50 µM; in the experiment on MOLT-4 leukemia, more than 50 µM; in the experiment with SK-MEL-28 melanoma it was more than 50 µM. The compound also had a TGI in the experiment on OVCAR-8 ovarian of 26.6 µM.
For the compound `Cc1ccc(-n2c3c(c4c(CN(C)C)c(O)ccc42)CCc2ccccc2C3=O)cc1`, the GI50 in the experiment on IGROV1 ovarian is 10.8 µM; in the experiment with HOP-92 NSCLC, 17.5 µM; in the experiment with 786-0 renal, 16.9 µM; in the experiment on DU-145 prostate, 37.3 µM; in the experiment on MOLT-4 leukemia, 20.3 µM; with OVCAR-8 ovarian, 16.9 µM. In addition, the TGI was 25.8 µM in the experiment on IGROV1 ovarian; 40 µM in the experiment on HOP-92 NSCLC; 33.3 µM with 786-0 renal; more than 100 µM with DU-145 prostate; 39.3 µM with MOLT-4 leukemia; 41.8 µM in the experiment on OVCAR-8 ovarian.
With `O=c1ccn(C2OC(CO/N=C/c3ccc(O)c(O)c3O)C(O)C2O)c(=O)[nH]1` (configuration not stated), the GI50 with IGROV1 ovarian is 19.4 µM; in the experiment on HOP-92 NSCLC, more than 100 µM; in the experiment with 786-0 renal, more than 100 µM; in the experiment with DU-145 prostate it was 17.1 µM; in the experiment with SNB-75 CNS it was 16.4 µM; in the experiment with SK-MEL-28 melanoma, more than 100 µM. Moreover, the GI50 in the experiment with OVCAR-8 ovarian was 22.3 µM. For the same compound, the TGI in the experiment on IGROV1 ovarian was 38.5 µM; in the experiment with HOP-92 NSCLC, more than 100 µM; in the experiment with 786-0 renal, more than 100 µM; in the experiment on DU-145 prostate, 33.2 µM; in the experiment on SNB-75 CNS, 32.2 µM; with SK-MEL-28 melanoma it was more than 100 µM. In addition, the TGI with OVCAR-8 ovarian was 56 µM.
On to `COc1cc(C)c(Cl)cc1C1=NN(c2ccc(S(N)(=O)=O)cc2)C(/C=C/c2ccccc2)C1` (configuration not stated), for which the GI50 in the experiment on IGROV1 ovarian is 4.15 µM; with 786-0 renal, 3.67 µM; with DU-145 prostate it was 3.91 µM; in the experiment on MOLT-4 leukemia, 3.37 µM; with SNB-75 CNS, 3 µM; in the experiment with SK-MEL-28 melanoma, 3.1 µM. Moreover, the GI50 in the experiment on OVCAR-8 ovarian is 3.33 µM. The TGI in the experiment with IGROV1 ovarian came out at 43.9 µM; in the experiment with 786-0 renal, 11.9 µM; with DU-145 prostate it was 16.7 µM; in the experiment on MOLT-4 leukemia, 64.4 µM; with SNB-75 CNS it was 30.1 µM; in the experiment with SK-MEL-28 melanoma, 11.4 µM. In the experiment on OVCAR-8 ovarian, this compound registered a TGI of 19.1 µM.
`O=C(c1ccco1)c1nc2cc(Cl)ccc2[n+]([O-])c1C(F)(F)F`: the GI50 is 54.5 µM in the experiment with IGROV1 ovarian; more than 100 µM with 786-0 renal; 76.5 µM in the experiment on DU-145 prostate; 27.1 µM in the experiment with MOLT-4 leukemia; 46 µM with SNB-75 CNS; 90.1 µM in the experiment with SK-MEL-28 melanoma. Moreover, the GI50 with OVCAR-8 ovarian was 57.1 µM. Also, the TGI was more than 100 µM with IGROV1 ovarian; more than 100 µM in the experiment with 786-0 renal; more than 100 µM with DU-145 prostate; 66.6 µM in the experiment on MOLT-4 leukemia; more than 100 µM in the experiment with SNB-75 CNS; more than 100 µM in the experiment on SK-MEL-28 melanoma. This compound returned a TGI in the experiment with OVCAR-8 ovarian of more than 100 µM.
For the compound `C/C(=N\Nc1cc(C)c2cc(C)ccc2n1)c1ccccn1`, the TGI was determined as 0.425 µM with IGROV1 ovarian; 1.27 µM in the experiment on 786-0 renal; 4.8 µM with DU-145 prostate; 0.361 µM in the experiment on MOLT-4 leukemia; 2.18 µM with SNB-75 CNS; 1.77 µM in the experiment on SK-MEL-28 melanoma. The GI50 in the experiment on 786-0 renal is 0.105 µM; in the experiment with DU-145 prostate, 0.0737 µM; in the experiment with SNB-75 CNS, 0.205 µM; with SK-MEL-28 melanoma it was 0.135 µM.
For `O=C(Nc1cccc(Cl)c1)c1ccc(NC2=C(Cl)C(=O)N(Cc3ccccc3)C2=O)cc1`, the GI50 in the experiment with IGROV1 ovarian was 9.95 µM; with HOP-92 NSCLC, 9.09 µM; with 786-0 renal, 8.61 µM; with DU-145 prostate, 8.37 µM; in the experiment on MOLT-4 leukemia, 1.67 µM; with SK-MEL-28 melanoma, 14.4 µM. Further, the GI50 with OVCAR-8 ovarian was 11.5 µM. The TGI with IGROV1 ovarian is more than 62.6 µM; in the experiment with HOP-92 NSCLC it was 29.5 µM; in the experiment on 786-0 renal, 19.7 µM; with DU-145 prostate, 19.2 µM; in the experiment with MOLT-4 leukemia, 4.89 µM; in the experiment with SK-MEL-28 melanoma it was 31.7 µM. The TGI in the experiment with OVCAR-8 ovarian was determined as 27.3 µM.
Regarding `O=C(CNc1ccc2c(c1)C(=O)c1ccccc1C2=O)Nc1ccc2c(c1)C(=O)c1ccccc1C2=O`, the GI50 was 0.681 µM in the experiment on IGROV1 ovarian; 1.39 µM in the experiment with HOP-92 NSCLC; 0.451 µM in the experiment with 786-0 renal; 1.53 µM in the experiment with DU-145 prostate; 1.79 µM in the experiment with SNB-75 CNS; 1.68 µM in the experiment on SK-MEL-28 melanoma. Besides, in the experiment with OVCAR-8 ovarian, the GI50 is 0.423 µM. Also, the TGI in the experiment with IGROV1 ovarian was found to be 2.7 µM; in the experiment on HOP-92 NSCLC, 2.98 µM; with 786-0 renal, 1.69 µM; with DU-145 prostate, 2.87 µM; in the experiment on SNB-75 CNS, 4.3 µM; in the experiment with SK-MEL-28 melanoma, 3.13 µM. The compound also gave a TGI with OVCAR-8 ovarian of 2.03 µM.
Regarding `N#Cc1nc2c(S(=O)(=O)c3ccccc3)c(N)n(Cc3cccnc3)c2nc1C#N`, the GI50 was 4.71 µM in the experiment with HOP-92 NSCLC; 22.2 µM in the experiment on 786-0 renal; 24.7 µM with DU-145 prostate; more than 100 µM in the experiment on MOLT-4 leukemia; 3.35 µM with SNB-75 CNS; 27.8 µM in the experiment on SK-MEL-28 melanoma. Further, in the experiment with OVCAR-8 ovarian, the GI50 is 10.9 µM. Further, the TGI is 28.5 µM with HOP-92 NSCLC; 79.3 µM in the experiment on 786-0 renal; more than 100 µM with DU-145 prostate; more than 100 µM in the experiment on MOLT-4 leukemia; 20.2 µM in the experiment with SNB-75 CNS; more than 100 µM in the experiment on SK-MEL-28 melanoma. The same compound returned a TGI in the experiment on OVCAR-8 ovarian of more than 100 µM.
For `O=C1c2cc3c(cc2-c2c1c1ccc(Cl)cc1c(=O)n2CCCNCCO)OCO3`, the GI50 in the experiment on HOP-92 NSCLC was 1.08 µM; in the experiment on 786-0 renal, 0.119 µM; in the experiment with DU-145 prostate, 0.059 µM; in the experiment with MOLT-4 leukemia, 0.031 µM; in the experiment with SK-MEL-28 melanoma, 1.43 µM; in the experiment with OVCAR-8 ovarian, 0.476 µM. Moreover, the TGI in the experiment on HOP-92 NSCLC was determined as 2.57 µM; in the experiment with 786-0 renal, 0.278 µM; in the experiment on DU-145 prostate, 1.68 µM; in the experiment with MOLT-4 leukemia, 0.512 µM; in the experiment with SK-MEL-28 melanoma, 3.26 µM; in the experiment with OVCAR-8 ovarian it was 2.59 µM.
Consider `Fc1ccc2c(c1)c(-c1nc(-c3c[nH]c4ncccc34)cs1)cn2CCCN1CCCCC1`, for which the GI50 was 1.47 µM in the experiment with HOP-92 NSCLC; 1.65 µM with 786-0 renal; 1.74 µM in the experiment on DU-145 prostate; 1.34 µM in the experiment on SNB-75 CNS; 1.75 µM in the experiment on SK-MEL-28 melanoma. For the same compound, the TGI amounted to 2.95 µM in the experiment on HOP-92 NSCLC; 3.1 µM in the experiment on 786-0 renal; 3.26 µM in the experiment on DU-145 prostate; 2.98 µM with SNB-75 CNS; 3.26 µM in the experiment on SK-MEL-28 melanoma.

The record behind these values is PubChem BioAssay (NCI).
